Columns and labels:
Enterococcus (20) = assay: In vitro antibacterial activity (MIC), clinical isolates; format: cell-based; conditions: 20 Enterococcus clinical isolates
In short: (§1)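 Clinical isolates collected in Sichuan and Beijing in 2002, identified with the API system, were exposed to test compound to determine MIC50, MIC90 and MIC range. S. aureus ATCC25923, 29213 and BAA-42 served as control strains.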

[1] = system: Staphylococcus aureus MRSA strain (80); assay: as above; format: cell-based; conditions: 80 MRSA clinical isolates
In short: as §1

[2] = system: Staphylococcus aureus MSSA strain (88); assay: as above; format: cell-based; conditions: 88 MSSA clinical isolates
In short: as §1

[3] = system: Staphylococcus epidermidis MSSE strain (21); assay: as above; format: cell-based; conditions: 21 MSSE clinical isolates
In short: as §1

[4] = system: Enterococcus faecalis ATCC 700802; assay: microbe, parasite or virus in culture; format: cell-based; conditions: Enterococcus faecalis, ATCC700802
[5] = system: Enterococcus faecalis ATCC 700802; assay: In vivo protection of infected mice; set-up: species or system Kungming mice; conditions: mice, i.p. infection 8.0 × 10^6 cfu/ml
Method: (§2) The following experiments were performed by Pharmacology Lab, National Sichuan antibiotic industril institute, Chengdu, Sichuan.
(§3) The agents described above were diluted with sterilized water to final concentrations of 10 mg/L, 5 mg/Land 2.5 mg/L.
(§4) Staphylococcus aureus ATCC BAA-42(MRSA) and enterococcus faecalis ATCC 700802 were used as control strains.
(§5) 170 mice (Kungming mice: 18˜22 g, 85 males and 85 females) were randomly divided into four groups and injected with a fatal dosage of staphylococci, enterococcus and E. coli intraperitoneally. […] Mice were inspected every 24 hours for 7-14 days. Dead mice were counted as positive results. The results are depicted in Table 3 and FIGS. 4 and 5A-B.

[6] = system: Staphylococcus aureus MRSA 02-18; assay: In vivo protection of infected mice; set-up: species or system Kungming mice; conditions: mice, i.p. infection 1.7 × 10^5 cfu/ml
Method: as §2, §3, §4, §5

[7] = system: Staphylococcus aureus MRSA BAA-42; assay: In vivo protection of infected mice; set-up: species or system Kungming mice; conditions: mice, i.p. infection 5.5 × 10^5 cfu/ml
Method: as §2, §3, §4, §5

[8] = system: Staphylococcus aureus MRSA BAA-42; assay: microbe, parasite or virus in culture; format: cell-based; conditions: Staphylococcus aureus MRSA BAA-42
[9] = system: Staphylococcus aureus MRSA 02-18; assay: microbe, parasite or virus in culture; format: cell-based; conditions: Staphylococcus aureus MRSA 02-18
[10] = system: Staphylococcus aureus ATCC 29213; assay: MIC against challenge strain (Table 3); format: cell-based
Escherichia coli 02-1-65 [11] = assay: In vivo protection of infected mice; set-up: species or system Kungming mice; conditions: i.p. infection 3.3 × 10^5 cfu/ml
Method: as §2
(§6) The agents described above were diluted with sterilized water to final concentrations of 10 mg/L, 5 mg/Land 2.5 mg/L. […]
as §5

[12] = system: Staphylococcus aureus ATCC 29213; assay: In vivo protection of infected mice; set-up: species or system Kungming mice; conditions: i.p. infection 3.6 × 10^5 cfu/ml
Method: as §2, §6, §5

Escherichia coli 02-1-65 [13] = assay: MIC against challenge strain (Table 3); format: cell-based
[14] = system: ATCC 700671 PRSP (S. pneumoniae); assay: In vivo protection effects of Ph-SP; set-up: species or system mice; conditions: for Death distribution in hours 24 h / Death distribution in hours 48 h / Death distribution in hours 72 h / Death distribution in hours 96 h / Death distribution in hours 120 h / Death distribution in hours 144 h / Death distribution in hours 168 h / Number of Death: 5 animals
Method: To assess the in vivo effect of Ph-SP, mice were injected with ATCC 700671 PRSP intraperitoneally, followed by intravenous injections of PH-SP or controls.
One hour after administration of the fatal dose of ATCC 700671 PRSP (10^5 CFU/ml), each mouse was injected through the tail vein with test agents at three dosages as described in Table 4.

ATCC 700802 VRE cells = assay: Ph-EF protection of ATCC 700802 infected mice; format: in vivo; conditions: 5 animals
Method: To assess in vivo effects of Ph-EF, mice were injected with a fatal dosage of ATCC 700802 VRE cells intraperitoneally. […] Mice were inspected every 24 hours for 7-14 days. Dead mice would be counted as positive results.

[15] = system: S. pneumoniae ATCC 700671 (Penicillin-resistant SP); conditions: 5 ug/ml
[16] = system: vancomycin-sensitive Enterococcus ATCC29212; conditions: 3 ug/ml; ATCC 29212 cells
MRSA strain ATCC BAA-42 = assay: Electron micrographs of bactericidal effects; format: cell-based, S. aureus; conditions: Ph-SA 50 μg/ml 0.5 hrs; wild type colicin Ia 50 μg/ml 2 hrs; AgrDI 10 μg/ml 2 hrs
From the text: Electron Micrographs of Bactericidal Effects of Ph-SA1 Against ATCC BAA-42 MRSA Strain Cells (1% Phosphotungstic Acid. 25,000×)

[17] = system: S. pneumoniae BQIOC 31201 (non-resistant)
[18] = 1st Time, i.v. treatment after one hour
[19] = 2nd Time (value in parentheses), i.v. treatment

## sodium penicillin
Enterococcus (20)
  MIC50: 32 µg/mL
  MIC90: 64 µg/mL
[1]
  MIC Scope: 1˜128 mg/l
[2]
  MIC50: 8 µg/mL
  MIC90: 64 µg/mL
[3]
  MIC50: 4 µg/mL
  MIC90: 32 µg/mL
  MIC Scope: 0.125˜128 mg/l
[4]
  MIC: 2 µg/mL
[5]; [18]
  ED50: 3.16 mg/kg
[5]; [19]
  ED50: (3.08) mg/kg
[6]; [18]
  ED50: 7.28 mg/kg
[6]; [19]
  ED50: (11.33) mg/kg
[7]; [18]
  ED50: >10 mg/kg
[7]; [19]
  ED50: (14.71) mg/kg
[8]
  MIC: 8 µg/mL
[9]
  MIC: >16 µg/mL
[10]
  MIC: 16 µg/mL
Escherichia coli 02-1-65 [11]; [18]
  ED50: >30.77 mg/kg
Escherichia coli 02-1-65 [11]; [19]
  ED50: (>30.77) mg/kg
[12]; [18]
  ED50: 10.75 mg/kg
[12]; [19]
  ED50: (9.84) mg/kg
Escherichia coli 02-1-65 [13]
  MIC: >128 µg/mL
[14]; 5 mg/kg tail vein
  Death distribution in hours 24 h: 3
  Death distribution in hours 48 h: 0
  Death distribution in hours 72 h: 0
  Death distribution in hours 96 h: 0
  Death distribution in hours 120 h: 0
  Death distribution in hours 144 h: 0
  Death distribution in hours 168 h: 0
  Number of Death: 3
[14]; 10 mg/kg tail vein
  Death distribution in hours 24 h: 3
  Death distribution in hours 48 h: 0
  Death distribution in hours 72 h: 0
  Death distribution in hours 96 h: 0
  Death distribution in hours 120 h: 0
  Death distribution in hours 144 h: 0
  Death distribution in hours 168 h: 0
  Number of Death: 3
ATCC 700802 VRE cells; 5 mg/kg intravenously
  Death distribution in hours 24 h: 0
  Death distribution in hours 48 h: 1
  Death distribution in hours 72 h: 1
  Death distribution in hours 96 h: 1
  Death distribution in hours 120 h: 0
  Death distribution in hours 144 h: 0
  Death distribution in hours 168 h: 0
  Number of Death: 3
ATCC 700802 VRE cells; 10 mg/kg intravenously
  Death distribution in hours 24 h: 0
  Death distribution in hours 48 h: 0
  Death distribution in hours 72 h: 0
  Death distribution in hours 96 h: 0
  Death distribution in hours 120 h: 0
  Death distribution in hours 144 h: 0
  Death distribution in hours 168 h: 0
  Number of Death: 0
[15]
  inhibition of cell growth: did not have a growth inhibitory effect
[16]
  inhibition of cell growth: inhibited cell growth

B1: wild type colicin Ia: wild type colicin Ia, channel forming polypeptide without targeting agent (protein)
chain: MSDPVARGITNPGAESLGYDSDGHEIMAVASPIYVASNPPRVASPVFHGTPPAWSSFGNKTIWGGNEWVASPDSPTRSDIEKRDKEITAYKNTLSAQQKENENKRTEAGKRLSAAIAAREKDENTLKTLRAGNADAADITRQEFRLLQAELREYGFRTEIAGYDALRLHTESRMLFADADSLRISPREARSLIEQAEKRQKDAQNADKKAADMLAEYERRKGILDTRLSELEKNGGAALAVLDAQQARLLGQQTRNDRAISEARNKLSSVTESLNTARNALTRAEQQLTQQKNTPDGKTIVSPEKFPGRSSTNHSIVVSGDPRFAGTIKITTSAVIDNRANLNYLLSHSGLDYKRNILNDRNPVVTEDVEGDKKIYNAEVALAEWDKLRQRLLDARNKITSAESAVASNSARNNLSARTNEQKHANDALNALLKEKENIRNQLSGINQKIAEEKRKQDELKATKDAINFTTEFLKSVSEKYGAKAEQLAREMAGQAKGKKIRNVEEALKTYEKYRADINKKINAKDRAAIAAALESVKLSDISSNLNRFSRGLGYAGKFTSLADWITEFGKAVARGTENWRPLFVKTETIIAGNAATALVALALVFSILTGSALGIIGYGLLMAVTGALIDESLVEKANKFWGI
modifications: E. coli
notes: wild type colicin Ia, channel forming polypeptide without targeting agent
MRSA strain ATCC BAA-42
  bactericidal effect / effect on cell growth (electron micrographs): no effect on cell growth
[17]; 5 ug/ml, S. pneumoniae BQIOC 31201
  inhibition of cell growth: did not inhibit growth
[16]
  inhibition of cell growth: failed to inhibit growth

B2: Ph-SP: Colicin Ia linked to ComC pheromone of S. pneumoniae (protein)
chain: SDPVARGITNPGAESLGYDSDGHEIMAVASPIYVASNPPRVASPVFHGTPPAWSSFGNKTIWGGNEWVASPDSPTRSDIEKRDKEITAYKNTLSAQQKENENKRTEAGKRLSAAIAAREKDENTLKTLRAGNADAADITRQEFRLLQAELREYGFRTEIAGYDALRLHTESRMLFADADSLRISPREARSLIEQAEKRQKDAQNADKKAADMLAEYERRKGILDTRLSELEKNGGAALAVLDAQQARLLGQQTRNDRAISEARNKLSSVTESLNTARNALTRAEQQLTQQKNTPDGKTIVSPEKFPGRSSTNHSIVVSGDPRFAGTIKITTSAVIDNRANLNYLLSHSGLDYKRNILNDRNPVVTEDVEGDKKIYNAEVALAEWDKLRQRLLDARNKITSAESAVASNSARNNLSARTNEQKHANDALNALLKEKENIRNQLSGINQKIAEEKRKQDELKATKDAINFTTEFLKSVSEKYGAKAEQLAREMAGQAKGKKIRNVEEALKTYEKYRADINKKINAKDRAAIAAALESVKLSDISSNLNRFSRGLGYAGKFTSLADWITEFGKAVARGTENWRPLFVKTETIIAGNAATALVALALVFSILTGSALGIIGYGLLMAVTGALIDESLVEKANKFWGIEMRLSKFFRDFILQRKK
modifications: colicin Ia attached to streptococcus pneumoniae polypeptide pheromone
[14]; 5 mg/kg tail vein
  Death distribution in hours 24 h: 0
  Death distribution in hours 48 h: 1
  Death distribution in hours 72 h: 0
  Death distribution in hours 96 h: 0
  Death distribution in hours 120 h: 0
  Death distribution in hours 144 h: 0
  Death distribution in hours 168 h: 0
  Number of Death: 1
[14]; 10 mg/kg tail vein
  Death distribution in hours 24 h: 0
  Death distribution in hours 48 h: 0
  Death distribution in hours 72 h: 0
  Death distribution in hours 96 h: 0
  Death distribution in hours 120 h: 0
  Death distribution in hours 144 h: 0
  Death distribution in hours 168 h: 0
  Number of Death: 0
[14]; ATCC 700671 PRSP i.p., agent i.v.
  protection against infection in mice: prevents streptococcus pneumoniae infection in mice
[15]
  inhibition of cell growth: more than 90%
[17]; Ph-SP 70,000 daltons vs penicillin 350 daltons
  bactericidal effect relative to penicillin on a molar basis: two hundred fold greater
